Several values for one entry are separate records, joined by “and”; a condition that tells them apart may be missing. Equal values may be shown once. Toxic doses and inconclusive results are not listed.
Tested on: AKR/Lw mice, AKR lymphoma ip, median survival T/C
Test: NCI In Vivo Anticancer Drug Screen. Data for tumor model Lymphoma AKR (Transplanted) (intraperitoneal) in AKR/Lw mice
Conditions: endpoint: median survival time, higher = longer survival
Method: The antitumor activity of compounds was measured in mice bearing transplantable tumors. Survival or tumor size were measured and the results are expressed as the measurement made in the treated group (T) divided by the measurement made in the vehicle treated control group (C). The tumor model used in this assay is Lymphoma AKR (Transplanted) (intraperitoneal) in AKR/Lw mice

[1] = dose: 50.0 mg/kg/injection, schedule: Q01DX001 (ip), vehicle: saline
[2] = dose: 100.0 mg/kg/injection, schedule: Q01DX001 (ip), vehicle: saline with Tween-80
[3] = dose: 100.0 mg/kg/injection, schedule: Q01DX001 (ip), vehicle: Klucel (hydroxypropylcellulose) (HPC)
[4] = dose: 100.0 mg/kg/injection, schedule: Q04DX003 (ip), vehicle: Klucel (hydroxypropylcellulose) (HPC)
[5] = dose: 200.0 mg/kg/injection, schedule: Q01DX001 (ip), vehicle: Klucel (hydroxypropylcellulose) (HPC)
[6] = dose: 200.0 mg/kg/injection, schedule: Q04DX003 (ip), vehicle: Klucel (hydroxypropylcellulose) (HPC)
[7] = dose: 100.0 mg/kg/injection, schedule: Q01DX001 (ip), vehicle: saline
[8] = dose: 200.0 mg/kg/injection, schedule: Q01DX001 (ip), vehicle: saline
[9] = dose: 400.0 mg/kg/injection, schedule: Q01DX001 (ip), vehicle: saline
[10] = dose: 400.0 mg/kg/injection, schedule: Q01DX001 (ip), vehicle: Klucel (hydroxypropylcellulose) (HPC)
[11] = dose: 400.0 mg/kg/injection, schedule: Q04DX003 (ip), vehicle: Klucel (hydroxypropylcellulose) (HPC)
[12] = dose: 200.0 mg/kg/injection, schedule: Q01DX009 (ip), vehicle: saline
[13] = dose: 400.0 mg/kg/injection, schedule: Q04DX003 (ip), vehicle: saline

## O=NN(CCCl)C(=O)NC1CCCCC1
dose: 2.0 mg/kg/injection, schedule: Q04DX003 (ip), vehicle: Klucel (hydroxypropylcellulose) (HPC)
  T/C: 102 % of control
dose: 2.5 mg/kg/injection, schedule: Q01DX001 (ip), vehicle: Klucel (hydroxypropylcellulose) (HPC)
  T/C: 109 % of control
dose: 4.4 mg/kg/injection, schedule: Q04DX003 (ip), vehicle: Klucel (hydroxypropylcellulose) (HPC)
  T/C: 106 % of control
dose: 5.0 mg/kg/injection, schedule: Q01DX001 (ip), vehicle: Klucel (hydroxypropylcellulose) (HPC)
  T/C: 111 % of control
dose: 5.0 mg/kg/injection, schedule: Q04DX004 (ip), vehicle: Klucel (hydroxypropylcellulose) (HPC)
  T/C: 100 % of control
dose: 6.25 mg/kg/injection, schedule: Q07DX003 (ip), vehicle: saline
  T/C: 109 % of control
dose: 6.7 mg/kg/injection, schedule: Q04DX003 (ip), vehicle: Klucel (hydroxypropylcellulose) (HPC)
  T/C: 122 % of control
dose: 7.0 mg/kg/injection, schedule: Q01DX001 (ip), vehicle: Klucel (hydroxypropylcellulose) (HPC)
  T/C: 165 % of control
dose: 10.0 mg/kg/injection, schedule: Q04DX003 (ip), vehicle: Klucel (hydroxypropylcellulose) (HPC)
  T/C: 115 % of control
dose: 10.0 mg/kg/injection, schedule: Q04DX004 (ip), vehicle: Klucel (hydroxypropylcellulose) (HPC)
  T/C: 100 % of control
dose: 12.5 mg/kg/injection, schedule: Q07DX003 (ip), vehicle: saline
  T/C: 96 % of control and 115 % of control and 118 % of control
dose: 25.0 mg/kg/injection, schedule: Q01DX001 (ip), vehicle: saline with Tween-80
  T/C: 159 % of control
dose: 25.0 mg/kg/injection, schedule: Q01DX001 (ip), vehicle: saline
  T/C: 106 % of control and 115 % of control
dose: 25.0 mg/kg/injection, schedule: Q07DX003 (ip), vehicle: saline
  T/C: 106 % of control and 109 % of control
dose: 50.0 mg/kg/injection, schedule: Q01DX001 (ip), vehicle: saline with Tween-80
  T/C: 365 % of control
[1]
  T/C: 115 % of control
[2]
  T/C: 218 % of control

## Nc1ccc(OCc2ccc(S(=O)(=O)F)c(Cl)c2)c(Cl)c1
dose: 50.0 mg/kg/injection, schedule: Q04DX003 (ip), vehicle: Klucel (hydroxypropylcellulose) (HPC)
  T/C: 88 % of control
[3]
  T/C: 87 % of control
[4]
  T/C: 86 % of control
dose: 150.0 mg/kg/injection, schedule: Q01DX009 (ip), vehicle: Klucel (hydroxypropylcellulose) (HPC)
  T/C: 112 % of control
[5]
  T/C: 90 % of control
[6]
  T/C: 111 % of control

## COC(=O)Cc1ccc([N+](=O)[O-])cc1[N+](=O)[O-]
[7]
  T/C: 94 % of control
[8]
  T/C: 94 % of control
[9]
  T/C: 97 % of control

## O=C1N[C@@H]([C@H]2CC[C@H](Cl)CN2)C(=O)N[C@H]1[C@H]1CC[C@H](Cl)CN1
dose: 0.5 mg/kg/injection, schedule: Q01DX001 (ip), vehicle: water
  T/C: 113 % of control
dose: 1.0 mg/kg/injection, schedule: Q01DX001 (ip), vehicle: water
  T/C: 111 % of control
dose: 2.0 mg/kg/injection, schedule: Q01DX001 (ip), vehicle: saline
  T/C: 102 % of control and 105 % of control
dose: 2.0 mg/kg/injection, schedule: Q01DX001 (ip), vehicle: water
  T/C: 114 % of control and 119 % of control
dose: 2.0 mg/kg/injection, schedule: Q01DX009 (ip), vehicle: water
  T/C: 178 % of control
dose: 4.0 mg/kg/injection, schedule: Q01DX001 (ip), vehicle: saline
  T/C: 102 % of control
dose: 4.0 mg/kg/injection, schedule: Q01DX001 (ip), vehicle: water
  T/C: 117 % of control
dose: 8.0 mg/kg/injection, schedule: Q01DX001 (ip), vehicle: saline
  T/C: 122 % of control
dose: 8.0 mg/kg/injection, schedule: Q01DX001 (ip), vehicle: water
  T/C: 171 % of control and 200 % of control
dose: 16.0 mg/kg/injection, schedule: Q01DX001 (ip), vehicle: saline
  T/C: 108 % of control
dose: 16.0 mg/kg/injection, schedule: Q01DX001 (ip), vehicle: water
  T/C: 207 % of control

## COc1ccccc1Oc1ccc(N=Cc2ccc(C)cc2)cc1
[3]
  T/C: 93 % of control
[4]
  T/C: 93 % of control
[5]
  T/C: 100 % of control
[6]
  T/C: 97 % of control
[10]
  T/C: 93 % of control
[11]
  T/C: 102 % of control

## NC(CSC(c1ccccc1)(c1ccccc1)c1ccc(CO)cc1)C(=O)O (centres undefined)
[3]
  T/C: 100 % of control
[5]
  T/C: 94 % of control
[10]
  T/C: 110 % of control

## CC(=O)CC(=O)c1ccccc1.CC(=O)CC(=O)c1ccccc1.CC(=O)CC(=O)c1ccccc1.[Co]
dose: 25.0 mg/kg/injection, schedule: Q01DX001 (ip), vehicle: Klucel (hydroxypropylcellulose) (HPC)
  T/C: 100 % of control
dose: 50.0 mg/kg/injection, schedule: Q01DX001 (ip), vehicle: Klucel (hydroxypropylcellulose) (HPC)
  T/C: 100 % of control

## CCOC(=O)c1ccc(NCC(C)(C)[N+](=O)[O-])cc1
[7]
  T/C: 88 % of control
[9]
  T/C: 88 % of control

## ClC1=C(Cl)C2(Cl)C(COc3ccc(Cl)cc3)CC1(Cl)C2(Cl)Cl (centres undefined)
[7]
  T/C: 94 % of control
[8]
  T/C: 88 % of control
[9]
  T/C: 91 % of control

## CC(=O)N1C(=O)C2(c3ccccc31)c1cccc3c1C(=C1C(=O)OC(=O)C12)C(=O)N3C(C)=O (centres undefined)
[8]
  T/C: 86 % of control
[9]
  T/C: 91 % of control

## O=C(Nc1cccc(Cl)c1)Oc1ccc2ccccc2c1
[2]
  T/C: 100 % of control
dose: 100.0 mg/kg/injection, schedule: Q01DX009 (ip), vehicle: saline
  T/C: 92 % of control
dose: 200.0 mg/kg/injection, schedule: Q01DX001 (ip), vehicle: saline with Tween-80
  T/C: 100 % of control
[12]
  T/C: 112 % of control
dose: 400.0 mg/kg/injection, schedule: Q01DX001 (ip), vehicle: saline with Tween-80
  T/C: 105 % of control
[13]
  T/C: 93 % of control

## CC(C)(CCCl)NCc1ccccc1
[7]
  T/C: 102 % of control

## Nc1nc(=S)c2ncn(C3CC(O)C(CO)O3)c2[nH]1 (centres undefined)
dose: 12.5 mg/kg/injection, schedule: Q01DX009 (ip), vehicle: saline
  T/C: 93 % of control
dose: 25.0 mg/kg/injection, schedule: Q04DX003 (ip), vehicle: saline
  T/C: 108 % of control
dose: 50.0 mg/kg/injection, schedule: Q04DX003 (ip), vehicle: saline
  T/C: 102 % of control and 119 % of control
[7]
  T/C: 100 % of control
dose: 100.0 mg/kg/injection, schedule: Q04DX003 (ip), vehicle: other
  T/C: 98 % of control and 123 % of control
[8]
  T/C: 102 % of control
[12]
  T/C: 86 % of control and 105 % of control and 116 % of control
dose: 200.0 mg/kg/injection, schedule: Q04DX003 (ip), vehicle: saline
  T/C: 108 % of control and 112 % of control and 116 % of control
dose: 300.0 mg/kg/injection, schedule: Q04DX003 (ip), vehicle: saline
  T/C: 119 % of control
dose: 400.0 mg/kg/injection, schedule: Q01DX009 (ip), vehicle: saline
  T/C: 103 % of control and 110 % of control
dose: 400.0 mg/kg/injection, schedule: Q04DX003 (ip), vehicle: other
  T/C: 113 % of control
[13]
  T/C: 116 % of control and 122 % of control
dose: 500.0 mg/kg/injection, schedule: Q01DX001 (ip), vehicle: saline
  T/C: 105 % of control and 107 % of control and 121 % of control
dose: 500.0 mg/kg/injection, schedule: Q04DX003 (ip), vehicle: saline
  T/C: 103 % of control
dose: 600.0 mg/kg/injection, schedule: Q01DX001 (ip), vehicle: saline
  T/C: 102 % of control and 111 % of control and 119 % of control
dose: 600.0 mg/kg/injection, schedule: Q04DX003 (ip), vehicle: saline
  T/C: 93 % of control and 100 % of control

## Cc1c(C(=O)O)cc2n(c1=O)Cc1cc3ccccc3nc1-2
[1]
  T/C: 102 % of control
dose: 50.0 mg/kg/injection, schedule: Q04DX003 (ip), vehicle: saline with Tween-80
  T/C: 93 % of control
[7]
  T/C: 100 % of control
dose: 100.0 mg/kg/injection, schedule: Q04DX003 (ip), vehicle: saline with Tween-80
  T/C: 100 % of control
[8]
  T/C: 94 % of control

## COc1cc2c(cc1OC)C(CNC(=O)/C=C/c1ccccc1)C2 (centres undefined)
[3]
  T/C: 102 % of control
[4]
  T/C: 96 % of control
[5]
  T/C: 94 % of control
[6]
  T/C: 100 % of control
[10]
  T/C: 89 % of control
[11]
  T/C: 100 % of control

Reference: PubChem BioAssay AID190 (DTP/NCI, 2004)
